One test has as its system Pseudomonas aeruginosa. The note with it: in words, background literature; cited from earlier work.
A further test deals with Escherichia coli (K-12). Briefly: antibacterial activity, minimum growth inhibitory concentration method (MIC method). The note with it: HIA medium, 37° C., 18 hours. Type of test: cell-based. On the procedure:
(§1) The antibacterial activity was tested by the minimum growth inhibitory concentration method (MIC method).
(§2) A commercially available heart infusion agar medium (to be abbreviated HIA medium) was used as an assay medium, and a commercially available trypto-soy bouillon medium (to be abbreviated TSB) was used as a medium for the growth of test bacterial strains.
(§3) The test compound was diluted with the melted HIA medium to 100 μg/ml as a maximum concentration, and then serially diluted doubly. The dilutions were poured into sterilized Petri dishes respectively and allowed to cool and solidify to prepare plates containing the test compound.
(§4) As a control, carbenicillin sodium (CB-PC) was used.
(§5) The test strain was cultivated in the TBS medium at 37° C. for 18 hours, and the culture broth was diluted with a freshly prepared TBS medium to 50 to 500 times, and one platinum loopful of the dilution was inoculated in each of the plates containing the test compound. The plate was incubated at 37° C. for 18 hours. The state of growth of the strain on the plate was observed, and the minimum growth inhibitory concentration (MIC) of the compound was determined.

For test [1], the system named is Pseudomonas aeruginosa (IFO-3901). The test is described as above. Format: cell-based. The settings on record: IFO3901, HIA medium, 37° C., 18 hours. On the procedure:
as §1, §2, §3, §4, §5

Test [2] has as its system Enterobacter aerogenes (IFO-3320). Described as above. Type of test: cell-based. The settings on record: Klebsiella aerogenes, read-out: Minimum growth inhibitory concentration (MIC). Here is the method:
as §1, §2, §3, §4, §5

The subject of test [3] is Serratia marcescens (S-33). The description is as above. Type of test: cell-based. The note with it: HIA medium, 37° C., 18 hours. Here is the method:
as §1, §2, §3, §4, §5

The test system of test [4] is Salmonellaenteritidis (KB-21). Described as above. Format: cell-based. The note with it: read-out: Minimum growth inhibitory concentration (MIC). On the procedure:
as §1, §2, §3, §4, §5

For test [5], the system named is Klebsiella pneumoniae (ATCC 10031). The test is described as above. Type of test: cell-based. The settings on record: ATCC10031, HIA medium, 37° C., 18 hours. Here is the method: as §1, §2, §3, §4, §5
The test system of test [6] is Staphylococcus aureus (FDA 209P). Described as above. Format: cell-based. The note with it: FDA209P, read-out: Minimum growth inhibitory concentration (MIC). Here is the method:
as §1, §2, §3, §4, §5

Test [7] relates to Staphylococcus aureus (Y-8). The test is described as above. Format: cell-based. The settings on record: HIA medium, 37° C., 18 hours. Here is the method: as §1, §2, §3, §4, §5
Another test has as its system Proteus vulgaris (OX-19). Described as above. The note with it: HIA medium, 37° C., 18 hours. Format: cell-based. Here is the method: as §1, §2, §3, §4, §5
The test system of test [8] is Pseudomonas aeruginosa (395). The test is described as above. The settings on record: HIA medium, 37° C., 18 hours. Format: cell-based. On the procedure:
as §1, §2, §3, §4, §5

For another test, the system named is Shigella flexneri (K-A). Described as above. Format: cell-based. The note with it: HIA medium, 37° C., 18 hours. Here is the method:
as §1, §2, §3, §4, §5

[9] abbreviates: IFO3320, Enterobacter aerogenes (IFO-3320), HIA medium, 37° C., 18 hours.
Setting [10] is: Salmonellaenteritidis (KB-21), HIA medium, 37° C., 18 hours.

Each structure is given as a SMILES string. Converted amounts (≈) assume the structure as drawn. Where two headings read alike, the source gives them in different places.

In the case of `CC1(C)S[C@@H]2[C@H](NC(=O)C(C(=O)O)c3ccccc3)C(=O)N2[C@H]1C(=O)O` (stereo partly drawn) [CB--PC, disodium-α-carboxybenzyl penicillin, reference compound], in the test on Pseudomonas aeruginosa, the “activity on Pseudomonas aeruginosa” value is given as “low activity”. Also, the “effect on Pseudomonas aeruginosa-induced infections of difficultly-curable nature” value in the test with Pseudomonas aeruginosa was “ineffective”. The MIC with Escherichia coli (K-12) was 6.25 µg/mL; in test [1], 100 µg/mL; in [2] (IFO3320, 18 h) it was 1.56 µg/mL; in [3], 3.13 µg/mL; in test [4] (18 h), 1.56 µg/mL; in [5] it was more than 100 µg/mL. Further, the MIC in test [6] (Staphylococcus aureus, 18 h) was found to be 1.56 µg/mL; in [7], 6.25 µg/mL; against Proteus vulgaris (OX-19), 3.13 µg/mL; in test [8], 25 µg/mL; with Shigella flexneri (K-A) it was 1.56 µg/mL.
In the case of `CC1(C)CC(=O)c2c([nH]cc(C(=O)N[C@@H](C(=O)N[C@@H]3C(=O)N4[C@@H]3SC(C)(C)[C@@H]4C(=O)O)c3ccccc3)c2=O)C1` [Synthesis Example 1, 6-[D-(-)-α-(7,7-dimethyl-4,5-dioxo-1,4,5,6,7,8-hexahydroquinoline-3-carboxamido)phenylacetamido]-penicillanic acid], the MIC in the test with Escherichia coli (K-12) was 0.78 µg/mL (≈ 1.38 µM); in [1] it was 6.25 µg/mL (≈ 11 µM); in [2] (setting [9]) it was 0.78 µg/mL (≈ 1.38 µM); in test [3] it was 3.13 µg/mL (≈ 5.52 µM); in [4] (setting [10]), 0.39 µg/mL (≈ 0.688 µM); in test [5], 12.5 µg/mL (≈ 22.1 µM). The MIC in test [6] (Staphylococcus aureus, 18 h) came out at 1.56 µg/mL (≈ 2.75 µM); in [7] it was 6.25 µg/mL (≈ 11 µM); against Proteus vulgaris (OX-19) it was 1.56 µg/mL (≈ 2.75 µM); in test [8] it was 1.56 µg/mL (≈ 2.75 µM); against Shigella flexneri (K-A), 0.39 µg/mL (≈ 0.688 µM).
Turning to `CCn1cc(C(=O)N[C@@H](C(=O)N[C@@H]2C(=O)N3[C@@H]2SC(C)(C)[C@@H]3C(=O)O)c2ccccc2)c(=O)c2c1CCCC2=O` [Synthesis Example 2, 6-[D-(-)-α-(1-ethyl-4,5-dioxo-1,4,5,6,7,8-hexahydroquinoline-3-carboxamodo)phenylacetamido]-penicillanic acid], the MIC is 3.13 µg/mL (≈ 5.52 µM) with Escherichia coli (K-12); 6.25 µg/mL (≈ 11 µM) in test [1]; 1.56 µg/mL (≈ 2.75 µM) in [2] (setting [9]); 3.13 µg/mL (≈ 5.52 µM) in test [3]; 0.78 µg/mL (≈ 1.38 µM) in [4] (setting [10]); 25 µg/mL (≈ 44.1 µM) in [5]. Also, the MIC in test [6] (Staphylococcus aureus (FDA 209P), HIA medium, 37° C., 18 hours) came out at 1.56 µg/mL (≈ 2.75 µM); in test [7] it was 6.25 µg/mL (≈ 11 µM); with Proteus vulgaris (OX-19), 3.13 µg/mL (≈ 5.52 µM); in test [8], 3.13 µg/mL (≈ 5.52 µM); against Shigella flexneri (K-A), 0.78 µg/mL (≈ 1.38 µM).

The values above are taken from US4263302A, “Quinolinecarboxylic acid substituted penicillins and pharmaceutical compositions containing the same” (Mitsui Toatsu Chemicals, Incorporated, priority 1978, dated 1981).
